Test results published in PubChem BioAssay AID489023 (Sanford-Burnham Center for Chemical Genomics, 2010).
Activity calls are given as the source filed them. No rule for the calls is given here.

System: 697B cells, BCR-induced NF-kB luciferase reporter luminescence
Assay: inhibitors of BCR-induced NF-kB activation, dose response, 697B cells, luciferase luminescence (AID 489023)

Question: For `CCOc1cc2nc(-c3ccc(OC)c(OC)c3)nc(N3CCOCC3)c2cc1OC`, which IC50 is on record?
Answer: The IC50 was 4.94 µM.

Question: Which IC50 does the source give for `COc1cccc(/C=C2\SC(=S)N(CCCC(=O)NC3=NCCS3)C2=O)c1` here?
Answer: The IC50 was 56.3 µM (inactive).

Question: `COc1ccc(-c2ccc(C(C)=O)cc2)cc1[C@H]1[C@H]2C=CC[C@@H](C)[C@@H]2C(=O)N1Cc1ccccc1` was tested. Which IC50 did it give?
Answer: The IC50 was > 80 µM (inactive).

Question: Which IC50 does the source give for `CCOc1ccc(-c2nnc(SCC(=O)Nc3cc(C)on3)o2)cc1` here?
Answer: The IC50 was 12 µM.

Question: Which IC50 does the source give for `Cc1nc2cc(-c3ccc(Cl)cc3)nn2c(C)c1CCC(=O)NCc1ccco1` here?
Answer: The IC50 was > 80 µM (inactive).

Question: With `Cc1ccccc1-c1cc(C(=O)Nc2sc(C(=O)OC(C)C)c(C)c2C#N)c2ccccc2n1` as the compound, how does the IC50 read?
Answer: Its IC50 is 42.8 µM (inactive).

Question: With `Cn1c(=O)n(C)c2cc(NC(=O)CSc3nnc(-c4ccccc4O)n3-c3ccccc3)ccc21` as the compound, how does the IC50 read?
Answer: Its IC50 is > 80 µM (inactive).

Question: With `Cc1ccc(C(=O)NNC(=O)CCCN2C(=O)/C(=C/c3ccccc3Cl)SC2=S)cc1` as the compound, how does the IC50 read?
Answer: Its IC50 is 22 µM (inactive).

Question: Which IC50 does the source give for `COc1ccc(NC(=O)c2cc3c(Cl)nc4ccccc4c3s2)cc1OC` here?
Answer: Its IC50 is 60.3 µM (inactive).

Question: Which IC50 does the source give for `CN1CCN(C(=O)c2ccccc2N(Cc2ccccc2)S(=O)(=O)c2ccccc2)CC1` here?
Answer: The IC50 was 29.2 µM (inactive).

Question: Which IC50 does the source give for `O=C(CCCN1C(=O)/C(=C/c2ccccc2Cl)SC1=S)NNC(=O)c1ccc(Cl)cc1` here?
Answer: Its IC50 is 30.7 µM (inactive).

Question: Which IC50 does the source give for `Cc1[nH]c2ccccc2c1C(=O)CN1C(=O)NC2(CC(C)CC(C)(C)C2)C1=O` (centres undefined) here?
Answer: Its IC50 is 6.97 µM.

Question: For `CC(C)(C)c1ccc(-c2noc(CCC(=O)NCc3ccco3)n2)cc1`, which IC50 is on record?
Answer: The IC50 was less than 0.16 µM.

Question: `CCn1c(=O)cc(OCC(=O)NCc2ccc(C)o2)c2ccccc21` was tested. Which IC50 did it give?
Answer: The IC50 was > 80 µM (inactive).

Question: With `Cc1ccccc1-n1c(SCc2c(C)noc2C)nnc1-c1c[nH]c2ccccc12` as the compound, how does the IC50 read?
Answer: Its IC50 is 76.1 µM (inactive).

Question: Which IC50 does the source give for `COc1ccc(/C=C2/SC(=S)N(CCCC(=O)Nc3ccc(O)cc3)C2=O)cc1OC` here?
Answer: Its IC50 is > 80 µM (inactive).

Question: How did the IC50 turn out when `CC(C)C[C@@H](N)c1nnc(SCC(=O)c2ccc(Cl)cc2)o1` was run?
Answer: Its IC50 is 47.6 µM (inactive).

Question: With `CCn1c(=O)cc(SCC(=O)N2CCN(C(=O)c3ccco3)CC2)c2ccccc21` as the compound, how does the IC50 read?
Answer: The IC50 was > 80 µM (inactive).

Question: `COc1ccc(OC)c(C2CC(=O)Nc3cc(OC)c(OC)c(OC)c32)c1` (centres undefined) was tested. Which IC50 did it give?
Answer: The IC50 was > 80 µM (inactive).

Question: Which IC50 does the source give for `O=C(C1CCC1)N1CCN(S(=O)(=O)c2ccc([N+](=O)[O-])cc2)CC1` here?
Answer: The IC50 was > 80 µM (inactive).

Question: `COCCCNC(=O)COc1ccc(-c2nccc(-c3ccccn3)n2)cc1` was tested. Which IC50 did it give?
Answer: Its IC50 is 19.4 µM.

Question: How did the IC50 turn out when `Cc1ccc(-c2nn3c(C)nnc3c3ccccc23)cc1S(=O)(=O)NC(C)(C)CO` was run?
Answer: Its IC50 is 29.6 µM (inactive).

Question: How did the IC50 turn out when `COC(=O)c1c(-c2ccc(N(C)C)cc2)sc2ccc(OC)cc12` was run?
Answer: Its IC50 is > 80 µM (inactive).

Question: For `COc1ccc(-c2ccc(OC)c([C@H]3[C@H]4C=CC[C@@H](C)[C@@H]4C(=O)N3Cc3ccccc3)c2)cc1`, which IC50 is on record?
Answer: The IC50 was > 80 µM (inactive).

Question: How did the IC50 turn out when `CCNc1nc(C)c2cc(Br)c(=O)n(CC)c2n1` was run?
Answer: The IC50 was 1.48 µM.

Question: For `O=C(Nc1ccc(NC(=O)c2cc3ccccc3o2)cc1)c1ccc2c(c1)OCCO2`, which IC50 is on record?
Answer: Its IC50 is 0.3 µM.

Question: With `C[C@H]1CCC/C=C/C2C[C@H](O)CC2[C@H](O)/C=C/C(=O)O1` (some centres undefined) as the compound, how does the IC50 read?
Answer: The IC50 was > 80 µM (inactive).

Question: With `Cc1ccc(NC(=O)C2CCC(CNc3c(N4CCC(C)CC4)c(=O)c3=O)CC2)cc1F` (centres undefined) as the compound, how does the IC50 read?
Answer: The IC50 was > 80 µM (inactive).

Question: With `O=C(O)CCSc1nc2ccccc2s1` as the compound, how does the IC50 read?
Answer: Its IC50 is 10.1 µM.

Question: How did the IC50 turn out when `CCOC(=O)CNC(=O)CSc1nnc(NC(=O)c2ccc(C)cc2)s1` was run?
Answer: Its IC50 is 6.84 µM.

Question: `Cc1ccc(CSc2nnc(SCC(=O)N/N=C/C=C/c3ccccc3[N+](=O)[O-])s2)cc1` was tested. Which IC50 did it give?
Answer: The IC50 was > 80 µM (inactive).

Question: For `Cc1ccc(-c2nn3c(C)nnc3c3ccccc23)cc1S(=O)(=O)NCCN1CCOCC1`, which IC50 is on record?
Answer: The IC50 was 31.5 µM (inactive).

Question: Which IC50 does the source give for `N=c1ccn2c(n1)O[C@H]1[C@H](O)[C@@H](CO)O[C@H]12` here?
Answer: The IC50 was less than 0.16 µM.

Question: How did the IC50 turn out when `COc1cc(NC(=O)c2ccco2)c(OC)cc1NC(=O)c1cc(OC)c(OC)c(OC)c1` was run?
Answer: The IC50 was 24.9 µM (inactive).

Question: `Nc1ccc(-c2cc3ccccc3oc2=O)cc1` was tested. Which IC50 did it give?
Answer: Its IC50 is 0.39 µM.

Question: `CCn1c(=S)[nH]c2cc(S(=O)(=O)N3CCCCC3)ccc21` was tested. Which IC50 did it give?
Answer: The IC50 was 31 µM (inactive).

Question: With `CC(=O)c1cccc(S(=O)(=O)Nc2cc(C(F)(F)F)ccc2N2CCOCC2)c1` as the compound, how does the IC50 read?
Answer: The IC50 was > 80 µM (inactive).

Question: For `C/C=C(/C)C(=O)OC1Cc2c(ccc3ccc(=O)oc23)OC1(C)C` (centres undefined), which IC50 is on record?
Answer: The IC50 was > 80 µM (inactive).

Question: `COc1ccc(CC(=O)Nc2cccc(-c3ccc4nnc(C)n4n3)c2)cc1` was tested. Which IC50 did it give?
Answer: Its IC50 is 71.7 µM (inactive).

Question: `CCOC(=O)Cc1csc(NC(=S)NC(=O)c2ccc(C)cc2)n1` was tested. Which IC50 did it give?
Answer: Its IC50 is 5.88 µM.

Question: Which IC50 does the source give for `COc1ccccc1/C=C1/SC(=S)N(CCC(=O)Nc2cccnc2)C1=O` here?
Answer: Its IC50 is 9.65 µM.

Question: Which IC50 does the source give for `COC(=O)c1c(NC(=O)c2cccc([N+](=O)[O-])c2)sc(C(N)=O)c1C` here?
Answer: Its IC50 is 45.6 µM (inactive).

Question: How did the IC50 turn out when `CCn1c(=O)c2cc(C(=O)NCc3cccs3)sc2c2ccccc21` was run?
Answer: The IC50 was > 80 µM (inactive).

Question: `CC1CCN(c2c(NCc3ccc(C(=O)N4c5ccccc5CC4C)cc3)c(=O)c2=O)CC1` (centres undefined) was tested. Which IC50 did it give?
Answer: The IC50 was > 80 µM (inactive).

Question: Which IC50 does the source give for `O=C(N/N=C/c1cccnc1)c1cc(-c2ccccc2OCc2ccccc2)n[nH]1` here?
Answer: Its IC50 is 6.82 µM.

Question: With `CC(C)[C@H](N)c1nnc(SCC(=O)c2ccc(Cl)cc2)o1` as the compound, how does the IC50 read?
Answer: The IC50 was > 80 µM (inactive).

Question: Which IC50 does the source give for `O=C(NCCCN1CCOCC1)c1cc(-c2ccc(Br)cc2)on1` here?
Answer: The IC50 was 48.1 µM (inactive).

Question: For `COc1ccc(-c2ccc(N(C)C)cc2)cc1[C@H]1[C@H]2C=CC[C@@H](C)[C@@H]2C(=O)N1Cc1ccccc1`, which IC50 is on record?
Answer: Its IC50 is > 80 µM (inactive).

Question: `CC(C)(C)c1ccc(-c2noc(CCC(=O)Nc3cccnc3)n2)cc1` was tested. Which IC50 did it give?
Answer: The IC50 was less than 0.16 µM.

Question: How did the IC50 turn out when `Cc1ccc(Nc2nc(N/N=C\c3ccc4c(c3)OCO4)nc(N3CCOCC3)n2)cc1` was run?
Answer: The IC50 was 3.11 µM.

Question: For `Cn1nc(-c2ccc(N3CCOCC3)c(NS(=O)(=O)c3ccccc3)c2)c2ccccc2c1=O`, which IC50 is on record?
Answer: Its IC50 is > 80 µM (inactive).

Question: How did the IC50 turn out when `Cc1ccoc1C(=O)Nc1ccc(CC(=O)O)cc1` was run?
Answer: The IC50 was 2.09 µM.

Question: For `CCOC(=O)C1CCN(c2ncnc3c2cnn3-c2ccc(Cl)cc2)CC1`, which IC50 is on record?
Answer: The IC50 was 0.82 µM.

Question: With `O=C1NC[C@H](c2ccccc2)OC(=O)[C@@H](Cc2ccc(F)cc2)C/C=C\C[C@H]1CC(=O)N(CCO)Cc1ccccc1` as the compound, how does the IC50 read?
Answer: Its IC50 is 9.87 µM.

Question: Which IC50 does the source give for `O=C(CCCN1C(=O)/C(=C/c2ccccc2Cl)SC1=S)NNC(=O)c1ccccc1` here?
Answer: Its IC50 is 12.5 µM.

Question: For `CCC(C)(C)c1ccc(OCCCC[n+]2ccccc2)c(C(C)(C)CC)c1`, which IC50 is on record?
Answer: The IC50 was 18.2 µM.

Question: How did the IC50 turn out when `O=C(CCCN1C(=O)S/C(=C\C=C\c2ccccc2)C1=O)Nc1ccc(O)cc1` was run?
Answer: The IC50 was 2.99 µM.

Question: For `O=C(CN1C(=O)c2ccccc2S1(=O)=O)c1ccccc1Cl`, which IC50 is on record?
Answer: The IC50 was 1.13 µM.

Question: `CCN(CC)S(=O)(=O)c1ccc(N2CCOCC2)c(NC(=O)c2[nH]c(C)c(C(C)=O)c2C)c1` was tested. Which IC50 did it give?
Answer: Its IC50 is 27.3 µM (inactive).

Question: How did the IC50 turn out when `Cn1c(=O)cc(OCCCC(=O)NC2CCCC2)c2ccccc21` was run?
Answer: The IC50 was 34.4 µM (inactive).

Question: Which IC50 does the source give for `Cc1ccc(/C=C2\SC(=S)N(CCCC(=O)Nc3ccccn3)C2=O)cc1` here?
Answer: Its IC50 is 0.37 µM.

Question: With `COc1cc(-c2[nH]nc3c2C(c2ccco2)C(C#N)=C(N)O3)cc(OC)c1OC` (centres undefined) as the compound, how does the IC50 read?
Answer: The IC50 was > 80 µM (inactive).

Question: How did the IC50 turn out when `O=C(NNC(=O)C12CC3CC(CC(Br)(C3)C1)C2)c1ccccc1F` was run?
Answer: The IC50 was 12.1 µM.

Question: `CCN(CC)CCCN=Cc1c(-c2ccccc2)[nH]n(-c2nc3ccccc3s2)c1=O` was tested. Which IC50 did it give?
Answer: Its IC50 is 17.9 µM.

Question: For `COc1ccc(NC(=O)c2nnn(Cc3cccc(F)c3)c2N)c(OC)c1`, which IC50 is on record?
Answer: Its IC50 is > 80 µM (inactive).

Question: For `COC(=O)[C@@H]1Cc2c([nH]c3ccccc23)C(C)(C)N1C(=O)CCl`, which IC50 is on record?
Answer: The IC50 was 1.12 µM.

Question: `CCN(CC)c1ccc2cc(NC(=O)CCC(=O)O)c(=O)oc2c1` was tested. Which IC50 did it give?
Answer: The IC50 was 1.23 µM.

Question: How did the IC50 turn out when `C(=N\Nc1nc(Nc2ccccc2)nc(N2CCOCC2)n1)/c1c[nH]c2ccccc12` was run?
Answer: Its IC50 is less than 0.16 µM.

Question: For `CCn1c(=O)cc(OCC(=O)N(C)C2CCCCC2)c2ccccc21`, which IC50 is on record?
Answer: Its IC50 is > 80 µM (inactive).
